Laboratory results: ChEMBL document CHEMBL2311250 (Bioorg Med Chem Lett, 2013)
Converted amounts (≈) assume the structure as drawn.

Key:
[1] = molecular target: Tyrosine-protein kinase Lck (Homo sapiens, UniProt P06239); test: Inhibition of LCK (unknown origin) in presence of ATP
[2] = molecular target: Tyrosine-protein kinase JAK3 (Homo sapiens, UniProt P52333); test: Inhibition of JAK3 (unknown origin) in presence of ATP
[3] = molecular target: Inhibitor of nuclear factor kappa-B kinase subunit epsilon (Homo sapiens, UniProt Q14164); test: Inhibition of IKKi (unknown origin) in presence of ATP
[4] = molecular target: Inhibitor of nuclear factor kappa-B kinase subunit beta (Homo sapiens, UniProt O14920); test: Inhibition of IKK-beta (unknown origin) in presence of ATP
Sequence of Inhibitor of nuclear factor kappa-B kinase subunit beta (O14920 whole entry): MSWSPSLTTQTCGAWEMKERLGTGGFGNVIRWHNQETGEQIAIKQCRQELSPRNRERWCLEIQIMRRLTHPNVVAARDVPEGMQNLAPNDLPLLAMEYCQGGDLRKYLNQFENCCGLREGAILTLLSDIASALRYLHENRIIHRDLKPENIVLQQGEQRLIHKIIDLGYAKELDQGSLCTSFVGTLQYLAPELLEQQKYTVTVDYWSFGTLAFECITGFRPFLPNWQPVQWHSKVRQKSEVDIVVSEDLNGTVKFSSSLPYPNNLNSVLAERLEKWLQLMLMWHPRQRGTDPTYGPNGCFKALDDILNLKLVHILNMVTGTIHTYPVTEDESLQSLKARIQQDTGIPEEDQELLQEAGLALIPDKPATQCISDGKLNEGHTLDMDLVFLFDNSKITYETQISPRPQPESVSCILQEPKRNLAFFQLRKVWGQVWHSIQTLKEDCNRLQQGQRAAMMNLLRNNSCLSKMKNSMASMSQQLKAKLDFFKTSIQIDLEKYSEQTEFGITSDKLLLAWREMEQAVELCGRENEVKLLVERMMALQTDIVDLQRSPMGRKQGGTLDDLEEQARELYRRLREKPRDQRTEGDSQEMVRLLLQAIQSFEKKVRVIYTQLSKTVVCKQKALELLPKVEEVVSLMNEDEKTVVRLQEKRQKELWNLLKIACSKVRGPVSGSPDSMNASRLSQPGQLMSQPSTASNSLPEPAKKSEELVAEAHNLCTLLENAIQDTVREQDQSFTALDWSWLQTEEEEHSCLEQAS

[5] = molecular target: Glycogen synthase kinase-3 beta (Homo sapiens, UniProt P49841); test: Inhibition of GSK3-beta (unknown origin) in presence of ATP
[6] = molecular target: Fibroblast growth factor receptor 1 (Homo sapiens, UniProt P11362); test: Inhibition of FGFR1 (unknown origin) in presence of ATP
Sequence of Fibroblast growth factor receptor 1 (P11362 whole entry): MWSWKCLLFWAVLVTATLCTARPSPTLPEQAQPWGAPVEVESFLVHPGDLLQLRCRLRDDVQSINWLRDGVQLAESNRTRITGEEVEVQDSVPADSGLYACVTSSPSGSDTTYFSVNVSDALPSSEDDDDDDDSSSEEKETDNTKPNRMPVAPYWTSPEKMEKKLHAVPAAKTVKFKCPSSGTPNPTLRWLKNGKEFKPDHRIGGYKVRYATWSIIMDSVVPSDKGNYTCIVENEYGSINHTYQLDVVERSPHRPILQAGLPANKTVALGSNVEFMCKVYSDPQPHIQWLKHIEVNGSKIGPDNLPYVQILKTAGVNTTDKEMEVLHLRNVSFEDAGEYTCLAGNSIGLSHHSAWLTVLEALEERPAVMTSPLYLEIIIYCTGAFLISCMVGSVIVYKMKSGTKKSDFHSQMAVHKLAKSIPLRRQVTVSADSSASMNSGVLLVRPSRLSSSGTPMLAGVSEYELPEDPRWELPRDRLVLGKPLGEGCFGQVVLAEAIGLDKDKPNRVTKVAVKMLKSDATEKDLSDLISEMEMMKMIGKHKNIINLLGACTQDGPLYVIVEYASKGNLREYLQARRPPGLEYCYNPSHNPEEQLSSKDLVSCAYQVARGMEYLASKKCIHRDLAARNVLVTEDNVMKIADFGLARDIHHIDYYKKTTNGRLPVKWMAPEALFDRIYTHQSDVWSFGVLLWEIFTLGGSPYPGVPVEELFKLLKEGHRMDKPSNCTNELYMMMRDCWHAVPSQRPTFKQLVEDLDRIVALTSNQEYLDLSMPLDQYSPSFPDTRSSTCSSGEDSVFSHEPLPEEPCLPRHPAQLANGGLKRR

Ephrin type-A receptor 2 = Ephrin type-A receptor 2 (Homo sapiens, UniProt P29317); test: Inhibition of ECK (unknown origin) in presence of ATP
[7] = molecular target: Dual specificity protein kinase CLK1 (Homo sapiens, UniProt P49759); test: Inhibition of CLK1 (unknown origin) in presence of ATP
[8] = molecular target: Casein kinase I isoform delta (Homo sapiens, UniProt P48730); test: Inhibition of CK1-delta (unknown origin) in presence of ATP
Casein kinase II = Casein kinase II (Homo sapiens, UniProt P19784+P67870+P68400); test: Inhibition of CK2 (unknown origin) in presence of ATP; assay type: protein-complex assay
[9] = molecular target: Serine/threonine-protein kinase Chk2 (Homo sapiens, UniProt O96017); test: Inhibition of CHK2 (unknown origin) in presence of ATP
[10] = molecular target: Serine/threonine-protein kinase Chk1 (Homo sapiens, UniProt O14757); test: Inhibition of CHK1 (unknown origin) in presence of ATP
CDK6/cyclin D3 = CDK6/cyclin D3 (Homo sapiens, UniProt Q00534); test: Inhibition of CDK6/cyclin D3 (unknown origin) in presence of ATP; assay type: protein-complex assay
[11] = molecular target: Cyclin-dependent kinase 2/cyclin A (Homo sapiens, UniProt P24941); test: Inhibition of CDK2/cyclin A (unknown origin) in presence of ATP; assay type: protein-complex assay
[12] = molecular target: Calcium/calmodulin-dependent protein kinase type 1 (Homo sapiens, UniProt Q14012); test: Inhibition of CAMK1 (unknown origin) in presence of ATP
Aurora kinase A = Aurora kinase A (Homo sapiens, UniProt O14965); test: Inhibition of Aurora-A (unknown origin) in presence of ATP
Sequence of Aurora kinase A (O14965 whole entry): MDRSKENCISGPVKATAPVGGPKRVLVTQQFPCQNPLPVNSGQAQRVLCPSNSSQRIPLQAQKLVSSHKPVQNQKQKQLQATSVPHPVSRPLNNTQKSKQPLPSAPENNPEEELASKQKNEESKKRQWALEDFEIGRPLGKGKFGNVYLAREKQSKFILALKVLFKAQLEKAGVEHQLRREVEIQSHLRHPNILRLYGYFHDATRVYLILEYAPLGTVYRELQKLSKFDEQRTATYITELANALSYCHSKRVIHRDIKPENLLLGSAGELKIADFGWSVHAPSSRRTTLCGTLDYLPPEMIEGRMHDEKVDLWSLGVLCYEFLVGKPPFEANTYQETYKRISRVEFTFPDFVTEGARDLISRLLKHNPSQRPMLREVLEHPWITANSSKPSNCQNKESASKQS

[13] = molecular target: Tyrosine-protein kinase BTK (Homo sapiens, UniProt Q06187); test: Inhibition of BTK (unknown origin) in presence of ATP
[14] = molecular target: RAC-alpha serine/threonine-protein kinase (Homo sapiens, UniProt P31749); test: Inhibition of AKT1 (unknown origin) in presence of ATP
[15] = molecular target: Tyrosine-protein kinase ABL1 (Homo sapiens, UniProt P00519); test: Inhibition of ABL (unknown origin) in presence of ATP
CYP2D6 = CYP2D6 (Homo sapiens, UniProt P10635); test: Inhibition of CYP2D6 (unknown origin) at 3 uM; assay type: ADME
[16] = Aqueous solubility of the compound at ph 6.5; assay type: physicochemical
[17] = Permeability of the compound by PAMPA; assay type: ADME; conditions: read-out: permeability
hERG (KCNH2) = hERG (KCNH2) (Homo sapiens, UniProt Q12809); test: Displacement of [3H]dofetilide from human ERG at 10 uM; conditions: probe [3H]dofetilide
[18] = Half life in human liver microsomes; assay type: ADME, Microsome
[19] = Half life in rat liver microsomes; assay type: ADME, Microsome
[20] = molecular target: Serine/threonine-protein kinase Nek2 (Homo sapiens, UniProt P51955); test: Inhibition of NEK2 (unknown origin) in presence of ATP
[21] = molecular target: Serine/threonine-protein kinase 3 (Homo sapiens, UniProt Q13188); test: Inhibition of MST2 (unknown origin) in presence of ATP
[22] = molecular target: Myosin light chain kinase 2, skeletal/cardiac muscle (Homo sapiens, UniProt Q9H1R3); test: Inhibition of MYLK2 (unknown origin) in presence of ATP
Sequence of Myosin light chain kinase 2, skeletal/cardiac muscle (Q9H1R3 whole entry): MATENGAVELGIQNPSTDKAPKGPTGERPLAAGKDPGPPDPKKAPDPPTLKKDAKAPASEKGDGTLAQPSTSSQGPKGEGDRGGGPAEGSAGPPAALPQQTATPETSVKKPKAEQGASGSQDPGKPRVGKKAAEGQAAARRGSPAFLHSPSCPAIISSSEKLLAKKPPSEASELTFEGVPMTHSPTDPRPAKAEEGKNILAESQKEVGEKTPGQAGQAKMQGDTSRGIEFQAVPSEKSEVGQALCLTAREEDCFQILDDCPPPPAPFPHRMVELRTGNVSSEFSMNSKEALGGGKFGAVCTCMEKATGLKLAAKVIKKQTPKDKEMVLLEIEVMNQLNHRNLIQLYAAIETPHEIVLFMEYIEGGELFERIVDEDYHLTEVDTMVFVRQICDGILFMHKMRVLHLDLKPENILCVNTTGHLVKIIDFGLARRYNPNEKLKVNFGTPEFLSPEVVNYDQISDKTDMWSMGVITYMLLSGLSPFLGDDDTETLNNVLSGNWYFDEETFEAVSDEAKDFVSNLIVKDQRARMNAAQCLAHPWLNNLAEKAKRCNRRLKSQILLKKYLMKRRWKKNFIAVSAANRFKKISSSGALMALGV

[23] = molecular target: Serine/threonine-protein kinase 26 (Homo sapiens, UniProt Q9P289); test: Inhibition of MASK (unknown origin) in presence of ATP
[24] = molecular target: Serine/threonine-protein kinase MARK1 (Homo sapiens, UniProt Q9P0L2); test: Inhibition of MARK1 (unknown origin) in presence of ATP
Sequence of Serine/threonine-protein kinase MARK1 (Q9P0L2 whole entry): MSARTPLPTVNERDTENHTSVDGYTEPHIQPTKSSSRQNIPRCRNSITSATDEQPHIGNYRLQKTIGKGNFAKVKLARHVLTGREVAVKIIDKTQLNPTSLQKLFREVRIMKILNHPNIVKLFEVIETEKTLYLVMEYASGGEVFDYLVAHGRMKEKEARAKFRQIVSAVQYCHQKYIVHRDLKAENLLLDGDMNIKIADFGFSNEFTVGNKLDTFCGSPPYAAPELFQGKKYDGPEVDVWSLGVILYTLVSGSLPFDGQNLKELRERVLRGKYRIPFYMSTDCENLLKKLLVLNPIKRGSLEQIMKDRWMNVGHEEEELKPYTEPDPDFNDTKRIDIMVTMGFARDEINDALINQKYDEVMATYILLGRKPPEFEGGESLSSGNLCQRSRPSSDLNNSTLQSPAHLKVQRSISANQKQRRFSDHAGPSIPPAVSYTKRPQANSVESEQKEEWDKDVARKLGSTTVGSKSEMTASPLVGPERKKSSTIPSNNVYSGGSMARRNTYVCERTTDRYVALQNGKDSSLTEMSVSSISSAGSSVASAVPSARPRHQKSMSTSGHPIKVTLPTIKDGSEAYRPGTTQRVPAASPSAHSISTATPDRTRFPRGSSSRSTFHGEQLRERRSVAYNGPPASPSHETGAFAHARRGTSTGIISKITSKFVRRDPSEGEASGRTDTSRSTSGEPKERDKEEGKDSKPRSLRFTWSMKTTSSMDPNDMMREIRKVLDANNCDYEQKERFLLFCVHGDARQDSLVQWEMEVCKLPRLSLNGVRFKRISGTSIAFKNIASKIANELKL

[25] = molecular target: Mitogen-activated protein kinase 1 (Homo sapiens, UniProt P28482); test: Inhibition of MAPK1/ERK2 (unknown origin) in presence of ATP
[26] = molecular target: MAP kinase-activated protein kinase 2 (Homo sapiens, UniProt P49137); test: Inhibition of MAPKAP-K2 (unknown origin) in presence of ATP
[27] = molecular target: Mitogen-activated protein kinase kinase kinase 9 (Homo sapiens, UniProt P80192); test: Inhibition of MAP3K9 (unknown origin) in presence of ATP
Sequence of Mitogen-activated protein kinase kinase kinase 9 (P80192 whole entry): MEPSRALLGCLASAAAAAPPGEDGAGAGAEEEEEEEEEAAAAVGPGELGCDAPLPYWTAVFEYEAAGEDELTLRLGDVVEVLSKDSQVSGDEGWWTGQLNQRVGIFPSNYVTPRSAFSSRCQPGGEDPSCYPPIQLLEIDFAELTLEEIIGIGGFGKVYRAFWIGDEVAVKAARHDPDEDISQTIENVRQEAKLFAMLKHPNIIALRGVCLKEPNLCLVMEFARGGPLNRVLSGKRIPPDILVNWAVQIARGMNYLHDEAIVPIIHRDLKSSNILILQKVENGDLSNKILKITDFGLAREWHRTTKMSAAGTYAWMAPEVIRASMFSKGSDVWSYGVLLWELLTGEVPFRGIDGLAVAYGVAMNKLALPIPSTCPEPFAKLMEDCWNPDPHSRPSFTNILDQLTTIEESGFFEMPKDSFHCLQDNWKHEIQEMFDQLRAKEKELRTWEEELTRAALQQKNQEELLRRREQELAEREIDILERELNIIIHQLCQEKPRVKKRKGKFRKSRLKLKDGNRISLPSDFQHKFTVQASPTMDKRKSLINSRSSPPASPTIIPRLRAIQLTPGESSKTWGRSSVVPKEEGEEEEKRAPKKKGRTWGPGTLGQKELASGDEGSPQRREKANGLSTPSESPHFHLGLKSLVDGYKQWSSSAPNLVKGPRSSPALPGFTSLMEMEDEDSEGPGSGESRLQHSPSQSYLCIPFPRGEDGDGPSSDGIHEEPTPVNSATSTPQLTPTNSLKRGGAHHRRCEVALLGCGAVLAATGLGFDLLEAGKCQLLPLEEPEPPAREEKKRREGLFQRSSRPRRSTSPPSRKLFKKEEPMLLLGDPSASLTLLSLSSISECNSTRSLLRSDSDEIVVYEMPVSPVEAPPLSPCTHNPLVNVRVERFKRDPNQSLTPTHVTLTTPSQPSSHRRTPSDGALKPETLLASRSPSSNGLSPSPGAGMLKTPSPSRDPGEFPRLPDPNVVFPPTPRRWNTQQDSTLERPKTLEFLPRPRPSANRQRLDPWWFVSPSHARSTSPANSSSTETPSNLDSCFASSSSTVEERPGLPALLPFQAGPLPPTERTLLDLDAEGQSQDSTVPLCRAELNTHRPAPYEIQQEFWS

Sequence of Tyrosine-protein kinase Lck (P06239 whole entry): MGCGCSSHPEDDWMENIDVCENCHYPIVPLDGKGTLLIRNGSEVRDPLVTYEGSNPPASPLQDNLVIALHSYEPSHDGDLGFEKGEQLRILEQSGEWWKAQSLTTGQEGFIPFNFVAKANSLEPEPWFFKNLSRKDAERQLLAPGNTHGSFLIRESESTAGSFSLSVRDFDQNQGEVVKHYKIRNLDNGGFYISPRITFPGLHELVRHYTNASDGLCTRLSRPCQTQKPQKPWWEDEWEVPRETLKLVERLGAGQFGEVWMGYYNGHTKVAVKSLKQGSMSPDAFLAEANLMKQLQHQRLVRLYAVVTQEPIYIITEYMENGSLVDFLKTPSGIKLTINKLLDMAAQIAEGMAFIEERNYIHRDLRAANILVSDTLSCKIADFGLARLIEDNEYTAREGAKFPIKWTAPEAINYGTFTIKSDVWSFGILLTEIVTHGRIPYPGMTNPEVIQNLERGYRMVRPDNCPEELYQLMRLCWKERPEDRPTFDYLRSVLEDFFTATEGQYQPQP

- IC50 [1]: 220 nM
- IC50 [2]: 5300 nM
- IC50 [3]: 30000 nM
- IC50 [4]: 30000 nM
- IC50 [5]: 7740 nM
- IC50 [6]: 1710 nM
- IC50 (Ephrin type-A receptor 2): 2430 nM
- IC50 [7]: 1630 nM
- IC50 [8]: 110 nM
- IC50 (Casein kinase II): 7560 nM
- IC50 [9]: 7970 nM
- IC50 [10]: 1370 nM
- IC50 (CDK6/cyclin D3): 30000 nM
- IC50 [11]: 1150 nM
- IC50 [12]: 3880 nM
- IC50 (Aurora kinase A): 1550 nM
- IC50 [13]: 950 nM
- IC50 [14]: 3100 nM
- IC50 [15]: 810 nM
- inhibition at 3 µM (CYP2D6): 69%
- solubility [16]: 2.3 µM (≈ 1.06 µg/mL)
- Papp [17]: 0.03 ×10⁻⁶ cm/s
- half-life [18]: 28 min
- half-life [19]: 6 min
- IC50 [20]: 2510 nM
- IC50 [21]: 470 nM
- IC50 [22]: 4860 nM
- IC50 [23]: 3840 nM
- IC50 [24]: 1490 nM
- IC50 [25]: 30000 nM
- IC50 [26]: 18600 nM
- IC50 [27]: 160 nM
Compound: Cc1cc(-c2cnc(Nc3cc(Cl)cc(Cl)c3)nc2NC2CCC(N(C)C)CC2)on1 (stereo not drawn)
- inhibition at 10 µM (hERG (KCNH2)): 0.35%
